Assay results from PubChem BioAssay AID504861 (Broad Institute, 2011).
The source made the active and inactive calls.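 Rule for the calls: active = compounds lowering cell viability signal with fitted half-maximal concentration at most ten times their highest tested concentration; inconclusive = flat fit with 30 to 70% signal loss, or poor fit; inactive = the rest.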

System: HEK293T viability, CellTiter-Glo ATP luminescence, 48 h
Assay: cytotoxicity in HEK293T cells – cell-based, CellTiter-Glo luminescence, cherry-picks, cytotoxicity control for LMP1 NF-kB inhibitor project, dose response (AID 504861)

SMILES: Cc1csc(SCC(=O)c2cc(C)n(Cc3cccs3)c2C)n1
- AC50: > 26 µM (inactive)

SMILES: CCCC(=O)NC(c1ccc(C)cc1)c1ccc2cccnc2c1O (configuration not stated)
- AC50: 4.45 µM

SMILES: COc1cccc(/C=N/Nc2ncccc2[N+](=O)[O-])c1OC
- AC50: 18.8 µM

SMILES: CC(=NNC(=S)Nc1cccc(Cl)c1)c1ccccn1
- AC50: 0.687 µM

SMILES: CC(=O)OC1CCC2(C)C(CCC3C4CC=C(C(C)=O)C4(C)OC(=O)CC32)C1 (configuration not stated)
- AC50: 4.45 µM

SMILES: C=CCn1c(O)c(N=NC(=S)Nc2cccc(C)c2)c2ccccc21
- AC50: > 26 µM (inactive)

SMILES: Cc1ccsc1/C=C/c1ccc2ccccc2n1
- AC50: 25.6 µM

SMILES: CC(C)OC(=O)c1ccc(NCc2cc(O)ccc2O)cc1Cl
- AC50: 6.74 µM

SMILES: c1ccn2cc(-c3ccc4c(c3)OCCO4)nc2c1
- AC50: 16.1 µM

SMILES: Cc1ccc(C(=O)Nc2ccc3c(c2)OCCO3)c(Cl)c1
- AC50: > 26 µM (inactive)

SMILES: C=C1C(=O)C2=CC1CCC(=O)C1(C)CCC(OC(C)=O)C(C)(C)C1CC2O (configuration not stated)
- AC50: 11.3 µM

SMILES: COc1ccccc1[C@]1(C)ON(c2ccccc2C(F)(F)F)C1=O
- AC50: 26.4 µM

SMILES: O=C(N/N=C/c1c(O)ccc2ccccc12)c1cccnc1
- AC50: 8.72 µM

SMILES: C(=Cc1cnc2ccccc2n1)c1ccc2c(c1)OCO2
- AC50: 1.74 µM

SMILES: CCCCC(=O)NC(c1ccc(N(CC)CC)cc1)c1ccc2cccnc2c1O (configuration not stated)
- AC50: 1.54 µM

SMILES: COc1cccc(/C=N/Nc2nccnc2Cl)c1O
- AC50: 3.79 µM

SMILES: CCCC(=O)NC(c1ccccc1Cl)c1ccc2cccnc2c1O (configuration not stated)
- AC50: 4.36 µM
